Species: Rattus norvegicus
Assay: DrugMatrix - Regimen: Daily Repeat
Format: toxicity, organism-based, Sprague-Dawley
Design: regimen Daily Repeat, gender Male, age 6-8 weeks
Settings: in vivo, po, route oral GAVAGE, vehicle .5 % CMC; for ABSOLUTE BASOPHIL / ABSOLUTE EOSINOPHIL / ABSOLUTE LYMPHOCYTE / ABSOLUTE MONOCYTE / ABSOLUTE SEGMENTED NEUTROPHIL / BASOPHIL / EOSINOPHIL / ERYTHROCYTE COUNT / HEMATOCRIT / HEMOGLOBIN / LEUKOCYTE COUNT / LYMPHOCYTE / MEAN CORPUSCULAR HEMOGLOBIN / MEAN CORPUSCULAR HEMOGLOBIN CONCENTRATION / MEAN CORPUSCULAR VOLUME / MONOCYTE / NEUTROPHIL / NUCLEATED RED BLOOD CELLS / PLATELET COUNT: tissue Blood; for ALANINE AMINOTRANSFERASE / ALBUMIN / ALKALINE PHOSPHATASE / ASPARTATE AMINOTRANSFERASE / BLOOD UREA NITROGEN / CARBON DIOXIDE / CHLORIDE / CHOLESTEROL / CREATINE PHOSPHOKINASE / CREATININE / GLUCOSE / LACTATE DEHYDROGENASE / LIPASE / PHOSPHORUS / POTASSIUM / SODIUM / TOTAL BILIRUBIN / TOTAL PROTEIN / URIC ACID: tissue Plasma
[1] = 50 mg/kg, 120 h, dose level Low, time 5 day
[2] = 500 mg/kg, 72 h, dose level High, time 3 day
[3] = 500 mg/kg, 120 h, dose level High, time 5 day

CC1(C)[C@H]2CC[C@]1(C)C(=O)C2 [(-)-CAMPHOR]
ABSOLUTE BASOPHIL [1]: 0 CELLS/uL
ABSOLUTE EOSINOPHIL [1]: 46.67 CELLS/uL
ABSOLUTE LYMPHOCYTE [1]: 13460 CELLS/uL
ABSOLUTE MONOCYTE [1]: 0 CELLS/uL
ABSOLUTE SEGMENTED NEUTROPHIL [1]: 2360 CELLS/uL
BASOPHIL [1]: 0%
EOSINOPHIL [1]: 0.33%
ERYTHROCYTE COUNT [1]: 5.24 x10E6/uL
HEMATOCRIT [1]: 32.6%
HEMOGLOBIN [1]: 12.5 G/DL
LEUKOCYTE COUNT [1]: 15.87 x10E3/uL
LYMPHOCYTE [1]: 86.33%
MEAN CORPUSCULAR HEMOGLOBIN [1]: 23.9 pg
MEAN CORPUSCULAR HEMOGLOBIN CONCENTRATION [1]: 38.33 G/DL
MEAN CORPUSCULAR VOLUME [1]: 62.27 fL
MONOCYTE [1]: 0%
NEUTROPHIL [1]: 13.33%
NUCLEATED RED BLOOD CELLS [1]: 0 /100WBC
PLATELET COUNT [1]: 1253.67 x10E3/uL
ALANINE AMINOTRANSFERASE [1]: 61.33 u/L
ALBUMIN [1]: 4.37 G/DL
ALKALINE PHOSPHATASE [1]: 416.33 u/L
ASPARTATE AMINOTRANSFERASE [1]: 88.33 u/L
BLOOD UREA NITROGEN [1]: 18.67 mg/dL
CARBON DIOXIDE [1]: 22.67 mmol/L
CHLORIDE [1]: 102.67 MEQ/L
CHOLESTEROL [1]: 64.33 mg/dL
CREATINE PHOSPHOKINASE [1]: 328 u/L
CREATININE [1]: 0.25 mg/dL
GLUCOSE [1]: 194.33 mg/dL
LACTATE DEHYDROGENASE [1]: 167.67 u/L
LIPASE [1]: 9 u/L
PHOSPHORUS [1]: 12.53 mg/dL
POTASSIUM [1]: 6.26 MEQ/L
SODIUM [1]: 143.3 MEQ/L
TOTAL BILIRUBIN [1]: 0.17 mg/dL
TOTAL PROTEIN [1]: 6.13 G/DL
URIC ACID [1]: 2.63 mg/dL
ABSOLUTE BASOPHIL [2]: 0 CELLS/uL
ABSOLUTE EOSINOPHIL [2]: 155.67 CELLS/uL
ABSOLUTE LYMPHOCYTE [2]: 12828.67 CELLS/uL
ABSOLUTE MONOCYTE [2]: 0 CELLS/uL
ABSOLUTE SEGMENTED NEUTROPHIL [2]: 1649 CELLS/uL
BASOPHIL [2]: 0%
EOSINOPHIL [2]: 1%
ERYTHROCYTE COUNT [2]: 5.48 x10E6/uL
HEMATOCRIT [2]: 34.93%
HEMOGLOBIN [2]: 13.23 G/DL
LEUKOCYTE COUNT [2]: 14.63 x10E3/uL
LYMPHOCYTE [2]: 88.33%
MEAN CORPUSCULAR HEMOGLOBIN [2]: 24.13 pg
MEAN CORPUSCULAR HEMOGLOBIN CONCENTRATION [2]: 37.9 G/DL
MEAN CORPUSCULAR VOLUME [2]: 63.7 fL
MONOCYTE [2]: 0%
NEUTROPHIL [2]: 10.67%
NUCLEATED RED BLOOD CELLS [2]: 0 /100WBC
PLATELET COUNT [2]: 1178.33 x10E3/uL
ALANINE AMINOTRANSFERASE [2]: 50.67 u/L
ALBUMIN [2]: 4.3 G/DL
ALKALINE PHOSPHATASE [2]: 369.33 u/L
ASPARTATE AMINOTRANSFERASE [2]: 74.67 u/L
BLOOD UREA NITROGEN [2]: 14 mg/dL
CARBON DIOXIDE [2]: 26.67 mmol/L
CHLORIDE [2]: 100.33 MEQ/L
CHOLESTEROL [2]: 67.67 mg/dL
CREATINE PHOSPHOKINASE [2]: 382.33 u/L
CREATININE [2]: 0.15 mg/dL
GLUCOSE [2]: 154 mg/dL
LACTATE DEHYDROGENASE [2]: 99 u/L
LIPASE [2]: 9 u/L
PHOSPHORUS [2]: 12.53 mg/dL
POTASSIUM [2]: 6.1 MEQ/L
SODIUM [2]: 145.07 MEQ/L
TOTAL BILIRUBIN [2]: 0.2 mg/dL
TOTAL PROTEIN [2]: 5.93 G/DL
URIC ACID [2]: 1.47 mg/dL
ABSOLUTE BASOPHIL [3]: 0 CELLS/uL
ABSOLUTE EOSINOPHIL [3]: 124.33 CELLS/uL
ABSOLUTE LYMPHOCYTE [3]: 12652.67 CELLS/uL
ABSOLUTE MONOCYTE [3]: 0 CELLS/uL
ABSOLUTE SEGMENTED NEUTROPHIL [3]: 1356.33 CELLS/uL
BASOPHIL [3]: 0%
EOSINOPHIL [3]: 1%
ERYTHROCYTE COUNT [3]: 5.72 x10E6/uL
HEMATOCRIT [3]: 37.43%
HEMOGLOBIN [3]: 14.2 G/DL
LEUKOCYTE COUNT [3]: 14.13 x10E3/uL
LYMPHOCYTE [3]: 89.67%
MEAN CORPUSCULAR HEMOGLOBIN [3]: 24.83 pg
MEAN CORPUSCULAR HEMOGLOBIN CONCENTRATION [3]: 37.93 G/DL
MEAN CORPUSCULAR VOLUME [3]: 65.4 fL
MONOCYTE [3]: 0%
NEUTROPHIL [3]: 9.33%
NUCLEATED RED BLOOD CELLS [3]: 0 /100WBC
PLATELET COUNT [3]: 1132 x10E3/uL
ALANINE AMINOTRANSFERASE [3]: 46.67 u/L
ALBUMIN [3]: 4.47 G/DL
ALKALINE PHOSPHATASE [3]: 355.33 u/L
ASPARTATE AMINOTRANSFERASE [3]: 67.33 u/L
BLOOD UREA NITROGEN [3]: 15 mg/dL
CARBON DIOXIDE [3]: 26.67 mmol/L
CHLORIDE [3]: 101 MEQ/L
CHOLESTEROL [3]: 59 mg/dL
CREATINE PHOSPHOKINASE [3]: 203.33 u/L
CREATININE [3]: 0.17 mg/dL
GLUCOSE [3]: 169.67 mg/dL
LACTATE DEHYDROGENASE [3]: 99.33 u/L
LIPASE [3]: 9 u/L
PHOSPHORUS [3]: 12.5 mg/dL
POTASSIUM [3]: 7.1 MEQ/L
SODIUM [3]: 145.87 MEQ/L
TOTAL BILIRUBIN [3]: 0.2 mg/dL
TOTAL PROTEIN [3]: 6.37 G/DL
URIC ACID [3]: 1.77 mg/dL

Source: ChEMBL document CHEMBL3885881, “DrugMatrix”
